| SMILES | melting point [°C] |
| --- | --- |
| CSC(=C(C#N)C#N)N1CCOCC1 | 143 to 145 |
| O=C(O)c1cc2c(=O)n3ccccc3nc2n1Cc1ccccc1 | 257 to 259 |
| NC(=O)NCc1cccs1 | 128 to 132 |
| Cc1noc(C)c1COc1ccc(CC(=O)O)cc1 | 138 to 140 |
| O=C(O)CSCc1cccc(Cl)c1 | 74 to 76 |
| NC(CN1CCCC1=O)c1cccc(C(F)(F)F)c1 (stereo not drawn) | 76 to 78 |
| COc1ccc(C)nc1N | 87 to 89 |
| O=C(O)CCc1ccc(Cl)s1 | 50 to 52 |
| Cc1cc(=O)oc2ccc(OCC(=O)O)cc12 | 153 to 155 |
| CC(SCc1nc2ccccc2c(=O)[nH]1)C(=O)O (stereo not drawn) | 204 to 206 |
| CCc1cc(Cl)n2nc(C(=O)OC)nc2n1 | 179 to 181 |
| COc1ccc(CNC(=O)C2CCNCC2)cc1 | 118 to 120 |
| O=C(O)c1c[nH]nc1-c1cccnc1 | 255 to 257 |
| O=C(O)C1CCCN(C(=O)c2ccc3[nH]ncc3c2)C1 (stereo not drawn) | 239 to 241 |
| COc1ccc(S(=O)(=O)N(C)C)cc1NC(=O)C(C)Cl (stereo not drawn) | 107 to 109 |
| Cc1nn(Cc2ccc(F)cc2)c2sc(C(=O)O)cc12 | 227 to 229 |
| O=C(O)C1CCN(c2ccc(Cl)c(Cl)c2)C1=O (stereo not drawn) | 165 to 167 |
| CCOc1ccccc1-c1cccc(C(=O)O)c1 | 144 to 146 |
| CC(C)CN1C(=O)CC(=O)NC1=O | 144 to 146 |
| Nc1ccc(Br)cc1O | 138 to 140 |
| CCOC(=O)c1ccc(NCC2CC2)cc1 | 69 to 71 |
| COc1ccc(NCCCC(=O)O)cc1 | 204 to 206 |
| C=CCN1C(=O)C(=NN)c2ccccc21 | 129 to 132 |
| NC(=O)c1c(N)sc2c1CCCC2 | 153 to 155 |
| Cc1ccc(NC(=O)c2ccccc2)cc1N | 144 to 146 |

| SMILES | melting point [°C] |
| --- | --- |
| NS(=O)(=O)Cc1ccc(F)cc1F | 139 to 141 |
| CCOc1ccc(Nc2ncccc2C(=O)O)cc1 | 189 to 191 |
| N#Cc1ccc(NC(=O)NC(CCC(=O)O)C(=O)O)cc1 (stereo not drawn) | 169 to 171 |
| O=C1OCCN1c1ccc([N+](=O)[O-])cc1 | 154 to 156 |
| O=C1OCC=C1Br | 53 to 55 |
| CN1CCC(O)(Cc2ccccc2Cl)CC1 | 73 to 75 |
| O=C(CCl)Nc1cc(C(F)(F)F)ccc1N1CCOCC1 | 155 to 157 |
| CC(C)NC(=O)c1ccc(Cl)cc1N | 158 to 160 |
| CCc1cc(N)on1 | 49 to 51 |
| COc1cccc(NCCC(=O)O)c1 | 87 to 89 |
| Nc1ccccc1CC(=O)O | 119 to 121 |
| CC(=O)Oc1ccc(CCl)cc1 | 29 to 31 |
| O=C(O)c1sc2cc(Cl)cc(Cl)c2c1Cl | 248 to 250 |
| CC(C)(C)OC(=O)NC1CCN(CC(=O)O)CC1 | 204 to 206 |
| CCCCn1c(N)c(NC2CCCC2)c(=O)[nH]c1=O | 250 to 252 |
| O=C(O)C1(Cc2ccccc2)CC1 | 102 to 104 |
| CCC(=O)c1ccc2c(c1)CC(=O)N2C | 205 to 207 |
| O=C(O)c1cc(Cl)cc2cccnc12 | 224 to 226 |
| CCC(=CC(=O)O)c1ccc(C)cc1 | 116 to 118 |
| O=C(O)Cc1cc(=O)[nH]c(=O)[nH]1 | 324 to 326 |
| CCCOc1cccc(C(=O)O)c1 | 73 to 75 |
| CCc1nc2c(s1)C(O)CCC2 (stereo not drawn) | 75 to 77 |
| CC(C)CC(=O)Nc1ccc(Cl)c(C(=O)O)c1 | 174 to 176 |
| CC(C)c1ccc(-n2nnnc2S)cc1 | 100 to 102 |
| CCNC(=O)Nc1cccc([N+](=O)[O-])c1 | 141 to 143 |

| SMILES | melting point [°C] |
| --- | --- |
| Nc1cccc(S(=O)(=O)Nc2ccc(Cl)cc2)c1 | 127 to 129 |
| CCOC(=O)c1csc(Nc2ccc(OC)cc2)n1 | 117 to 119 |
| Clc1ccc(-c2nnc(Br)s2)cc1 | 135 to 137 |
| CNc1cc(C(=O)O)cc(Cl)n1 | 259 to 261 |
| O=C(O)c1ccc(Cn2nnc3ccccc32)cc1 | 264 to 266 |
| NC(CN1CCCCCC1)=NO | 124 to 126 |
| Cc1cc(NC(=O)OCC(F)(F)F)n(CCC#N)n1 | 128 to 130 |
| Nc1ccnn1Cc1cccnc1 | 86 to 88 |
| Cc1cc(-n2cccc2)ccc1C(=O)O | 150 to 152 |
| CCOc1ccc(Oc2ccc(S(=O)(=O)Cl)cc2)cc1 | 88 to 90 |
| NC(=O)c1cc(-c2ccccc2)on1 | 202 to 204 |
| CCC(=O)N1CCc2cc(C(=O)CCl)ccc21 | 201 to 203 |
| CC(C)(C(=O)O)c1cccc(Br)c1 | 68 to 70 |
| Sc1nnc(-c2cccs2)n1CC1CCCO1 (stereo not drawn) | 107 to 108 |
| CC(C)(C)c1ccc(Oc2ccc(C(=O)O)cn2)cc1 | 143 to 145 |
| OC1CCN(c2cnnc3ccccc23)CC1 | 84 to 86 |
| CC1NCCn2c(Cl)ccc21 (stereo not drawn) | 53 to 55 |
| CNc1ccc(Br)cc1N | 49 to 51 |
| Cc1ccc(-c2nc3ccccc3[nH]2)s1 | 259 to 261 |
| O=Cc1ccc(-c2ccc(Cl)cc2C(F)(F)F)s1 | 58 to 60 |
| O=C(NCCCN1CCCC1=O)OCC(F)(F)F | 35 to 37 |
| O=C(O)CCSc1ccccc1 | 59 to 61 |
| CC(=O)c1c(C)nn(-c2ccccc2)c1C | 60 to 62 |

— a melting point compilation (Tetko et al.)
